In patent US7879870B2, “Treatment of inflammatory and ulcerative diseases of the bowel with opioid antagonists” (priority 2006, dated 2011):
Entries after “also recorded” stand apart in the source; their conditions may differ.

Tests used:
[1] = system: DSS-induced colitis in mice; experiment: DSS-induced colitis in mice: weight, food and water intake, modified DAI, colon length; assay type: in vivo, mouse
Source text: Six to eight-week-old male C57 black/6J mice (Charles River Laboratories, Inc., Wilmington, Mass.) were randomly allocated into one of two groups of 24 mice each. Food and water were provided ad libitum. The first group (Normal) received normal drinking water and the second group (DSS) received water containing 2% dextran sulfate sodium having a molecular weight of 40,000 (TdB Consultancy AB, Uppsala, Sweden) for six days followed by normal water for three additional days and necropsy on day 9 (FIG. 5A). Each mouse was housed in an individual cage for accurate measurement of food and water intake. Animal weight, water intake, and food consumption were measured daily. Bedding was changed and fresh stool pellets were collected daily and analyzed for occult blood. The colitis disease activity index (DAI) was calculated for each mouse according to the system established by Murthy and colleagues. See, Murthy, et al., “Treatment of dextran sulfate sodium-induced murine colitis by intracolonic cyclosporin,” Dig. Dis. Sci. 38, 1722-34 (1993). Overt changes in stool consistency were rarely discerned so a modified DAI was calculated based on percent weight loss and stool hemoccult or presence of gross bleeding.
(§1) Mice in each group (Normal or DSS) were randomly subdivided into three treatment groups of eight mice each. After 72 hours, mice were treated once daily for six consecutive days with a subcutaneous injection (0.1 mL) of one of the following: saline (control), 6.3 μg/kg naltrexone (“NTX”), or 350 μg/kg NTX (Sigma Chemicals, St. Louis, Mo.). On day 9, all animals were necropsied and their colons resected.
(§2) At necropsy, the entire colon was excised, measured in length, and bisected into proximal and distal portions. The proximal and distal colons were additionally divided for RNA extraction and histology. Each histology specimen was fixed in 10% neutral buffered formalin, paraffin embedded and sectioned for hematoxylin and eosin (“H&E”) staining. Specimens were examined microscopically and scored based upon the criteria established by Williams et al. by an investigator blinded to the treatment groups. Williams, et al., “Enhanced survival and mucosal repair after dextran sodium sulfate-induced colitis in transgenic mice that overexpress growth hormone,” Gastroenterology 120, 925-37 (2001). Briefly, a representative longitudinal section from each mouse was scored at six random fields for inflammation severity, extent of inflammation (mucosa, submucosa, transmural) and crypt damage. Each of these scores was weighted to reflect the percent involvement of the overall section and the weighted scores from each of the six fields were averaged to achieve an overall inflammation score for each mouse.
(§3) Results were calculated as mean±SEM. Statistical comparisons were performed between NTX treatment sub-groups and their corresponding saline control, as well as between the Normal and DSS groups, comparing corresponding treatments. Parametric analyses were performed (Minitab 13, State College, Pa.) using a modified Bonferroni method to correct for multiple comparisons to controls.

[2] = system: DSS-induced colitis in mice; experiment: DSS-induced colitis in mice: histological inflammation score of distal colon (H&E); assay type: in vivo, mouse
Experimental: as §1, §2, §3

[3] = system: mucin (Muc2), trefoil factor (TFF3), TGF-beta binding protein mRNA; experiment: Distal colon RNA of DSS mice, microarray and quantitative RT-PCR; assay type: in vivo, mouse
Source text: (§4) Total RNA was extracted from the distal colon samples (using TRIZOL® available from Invitrogen Corp., Carlsbad, Calif.; TRIZOL® is a trademark of Molecular Research Center, Inc. of Cincinnati, Ohio) and subjected to microarray analysis using a 10K mouse microarray (MWG Biotech, High Point, N.C.) and a Packard Biosciences ScanArray 4000KL machine (Functional Genomics Core Facility of the Section of Research Resources, Penn State College of Medicine). To minimize the impact of variation among animals, RNA from individual mice was pooled within each treatment group. […] RNA from Normal+saline, DSS+6.3 μg/kg NTX, and DSS+350 μg/kg NTX were each tested versus DSS+saline. Data were analyzed with GenSpring 6 software (Agilent Technologies, Palo Alto, Calif.).
RNA (18S and 28S bands) was visualized using the Agilent 2100 Bioanalyzer (Agilent Technologies, Santa Clara, Calif.) and concentrations were adjusted. […] The concentration and quality of resulting cDNA was quantified and analyzed using the Agilent 2100 Bioanalyzer or spectroscopically with the NanoDrop ND-1000 (NanoDrop Technologies, Wilmington, Del.). […] PCR amplification and analysis were performed with the Applied Biosystems Sequence Detection System 7300 using the Relative Quantification (ddCt). […]

IL-12 mRNA = experiment: Distal colon RNA of DSS mice, real-time RT-PCR; assay type: in vivo, mouse; settings: DSS mice treated with naltrexone
Source text: as §4
(§5) RNA (18S and 28S bands) was visualized using the Agilent 2100 Bioanalyzer (Agilent Technologies, Santa Clara, Calif.) and concentrations were adjusted. First strand cDNA was then produced from 1.0 μg of total RNA using random hexamer primers and the SuperScript III Reverse Transcription kit (Invitrogen). The concentration and quality of resulting cDNA was quantified and analyzed using the Agilent 2100 Bioanalyzer or spectroscopically with the NanoDrop ND-1000 (NanoDrop Technologies, Wilmington, Del.). Samples were standardized to 30 ng/μL and 60 ng of cDNA per sample was then used as a template for real-time PCR using a SYBR Green Master Mix (Qiagen, Valencia, Calif.). 18S rRNA primers (Eurogentec, San Diego, Calif.) and the following gene-specific primer sequences obtained from PrimerBank (pga.mgh.harvard.edu/primerbank) were used: beta-actin, 6671509a; IL-5, 6754336a; IL-6, 13642311a; IL-12, 6680395a; STAT3, 13277852a; STAT4, 6755670a; Muc2, 3452503a2; TFF3, 6755773a1; Palladin, 9828173a1; and TGF-beta BP, 7305243a1. To exclude the possibility of genomic DNA contamination, control reactions with no cDNA template were also performed for each gene-specific primer set. PCR amplification and analysis were performed with the Applied Biosystems Sequence Detection System 7300 using the Relative Quantification (ddCt). Amplification data for the genes of interest were normalized to 18S within each individual reaction. Triplicate reactions were performed and the resultant data from multiple runs were averaged.

IL-5 mRNA = experiment: Distal colon RNA of DSS mice, real-time RT-PCR; assay type: in vivo, mouse; settings: DSS+NTX
Source text: as §4, §5

IL-6 mRNA = experiment: Distal colon RNA of DSS mice, real-time RT-PCR; assay type: in vivo, mouse; settings: DSS mice treated with naltrexone
Source text: as §4, §5

STAT3 mRNA = experiment: Distal colon RNA of DSS mice, real-time RT-PCR; assay type: in vivo, mouse
Source text: as §4, §5

STAT4 mRNA = experiment: Distal colon RNA of DSS mice, real-time RT-PCR; assay type: in vivo, mouse
Source text: as §4, §5

beta-actin mRNA = experiment: Distal colon RNA of DSS mice, real-time RT-PCR; assay type: in vivo, mouse; settings: DSS+NTX
Source text: as §4, §5

[4] = higher doses, i.e. 50 mg; cited from earlier work
[5] = DSS mice treated with naltrexone

## O=C1CC[C@@]2(O)[C@H]3Cc4ccc(O)c5c4[C@@]2(CCN3CC2CC2)[C@H]1O5 [naltrexone]
[1]; DSS mice treated with naltrexone, still shorter than in untreated animals
  Colon length: more normal colon lengths
[1]; DSS mice, 350 μg/kg
  DAI scores / disease symptoms compared to DSS+saline (in words): lower DAI scores; also recorded: decreased
  Weight loss compared to DSS mice treated with saline: less weight loss; also recorded: decreased
[1]; DSS mice, naltrexone s.c. once daily from 72 hours
  Weight loss compared to DSS+saline: tended to be less
[1]; DSS mice, naltrexone treatment
  DAI scores of DSS mice (in words): A reduction in these DAI scores was evident
[1]; DSS+6.3 μg/kg NTX, p=0.02
  Weight loss compared to DSS+saline, statistical significance: only reached statistical significance on day 6
[1]; Normal mice (no DSS), NTX-treated
  Modified DAI scores: no evidence of colitis
[1]; day 6, DSS+350 μg/kg NTX, p=0.015
  DAI scores lower than DSS+saline mice: 55%
[1]; day 9, off DSS for three days
  Weight at necropsy among the three DSS sub-groups: no significant difference in weight
[1]; naltrexone treatment alone (Normal mice, no DSS)
  Food consumption: no effect on food consumption
[2]; DSS mice, 350 μg/kg
  Inflammation by histology compared to DSS+saline (in words): less inflammation; also recorded: improved
[2]; DSS+350 μg/kg NTX
  Crypt architecture and invading leukocytes compared to DSS+saline: improved crypt architecture and fewer invading leukocytes
[2]; DSS+NTX 6.3 and 350 μg/kg, trend did not reach statistical significance
  Inflammation scores of distal colon compared to DSS+saline: dose-dependent decrease in inflammation and damage
[2]; Normal mice (no DSS)
  Colonic inflammation, histology, Normal+saline versus Normal+NTX: No differences in colonic inflammation
[2]; naltrexone alone (no DSS)
  Mucosal integrity of the colon: did not alter the mucosal integrity of the colon
[3]; DSS animals, either 6.3 or 350 μg/kg
  Levels of Muc2, TFF3 and TGF-beta binding protein mRNAs, microarray: restored the levels of these mRNAs in DSS animals to varying extents
[3]; DSS+NTX animals
  Levels of Muc2, TFF3 and TGF-beta binding protein mRNAs, quantitative RT-PCR, versus Normal animals: not significantly different from Normal animals
IL-12 mRNA
  IL-12 mRNA level versus colitis-free mice: decreased to levels near or equal to that in mice without colitis; also recorded: restored mRNA expression to that seen in the colitis-free, Normal mice
IL-12 mRNA; DSS+saline increased three-fold
  IL-12 mRNA level versus DSS+saline: greatly reduced
IL-5 mRNA
  Expression of IL-5: not significantly changed
IL-6 mRNA
  IL-6 mRNA level versus colitis-free mice: decreased to levels near or equal to that in mice without colitis; also recorded: not completely restored to those seen in the colitis-free animals
IL-6 mRNA; DSS+saline increased 73-fold
  IL-6 mRNA level versus DSS+saline: greatly reduced
STAT3 mRNA; [5]
  STAT3 mRNA level versus colitis-free Normal controls: statistically indistinguishable from colitis-free, Normal controls
STAT3 mRNA; DSS mice, DSS+saline increased 2.20-fold
  STAT3 mRNA level, decrease after naltrexone treatment: greater than 50%
STAT3 mRNA; DSS-treated mice
  DSS-induced up-regulation of STAT3 expression (in words): reversed
STAT4 mRNA; [5]
  STAT4 mRNA level versus Normal mice: still slightly higher than in the Normal mice
STAT4 mRNA; DSS mice, DSS+saline increased 8.03-fold
  STAT4 mRNA level, decrease after naltrexone treatment: greater than 50%
STAT4 mRNA; DSS-treated mice
  DSS-induced up-regulation of STAT4 expression (in words): reversed
beta-actin mRNA
  Expression of beta-actin: not significantly changed
[4]
  Liver transaminases: elevate liver transaminases
